The values below are quoted from earlier work in US20060167044A1, “Piperidine derivatives and their use as anti-inflammatory agents” (priority 2004, published 2006).

In this series the test system is UUO kidneys. As to conditions: mouse, in vivo.

For the compound `C[C@@H]1CN(Cc2ccc(F)cc2)CCN1C(=O)COc1ccc(Cl)cc1NC(N)=O` [BX 471], the “CD8+/CCR5+ T cells (FACS analysis)” value is listed as “comparable reduction”.
